Literature values, collected in patent US10874875B2, “Irradiation device” (Photocure ASA, priority 2009, dated 2020).

System: CIN2 or CIN3 or a persistent CIN1
Conditions: 24 patients; local application in a thermogel formulation; illumination 17 minutes after 3-5 hours, laser 100 J/cm^2; second PDT offered for incomplete response; scored at 6 months after the first treatment

Q: Which complete response rate does the source give for `CCCCCCOC(=O)CCC(=O)CN` [5-ALA hexylester, 5-ALA hexyl ester] here?
A: 63%
